Experimental data taken from patent US12545660B2, “Crystalline forms of a farnesoid X receptor agonist” (ELI LILLY AND COMPANY, priority 2020, dated 2026).
pEC50: −log10 of the molar value.

Legend:
[1] = Dynamic Vapor Sorption (DVS); type: physicochemical; details: for water content at 95% RH (DVS) / hygroscopicity (DVS): 25° C.; for water content at 95% RH (DVS): two complete sorption/desorption cycles; for hygroscopicity (DVS): DVS isotherm
Method: Sorption isotherms were obtained using a SMS DVS Intrinsic moisture sorption analyzer, controlled by DVS Intrinsic Control software v1.0.1.2 (or v1.0.1.3). The sample temperature was maintained at 25° C. by the instrument controls. The humidity was controlled by mixing streams of dry and wet nitrogen, with a total flow rate of 200 ml/min. The relative humidity (RH) was measured by a calibrated Rotronic probe (dynamic range of 1.0-100% RH), located near the sample. The weight change, (mass relaxation) of the sample as a function of % RH was constantly monitored by the microbalance (accuracy ±0.005 mg).

hFXR = target: T1, hFXR (Homo sapiens, UniProt Q96RI1); test: In Vitro FXR Assay (TK); type: cell-based; details: CV-1 cells transfected with hFXR, hRXR, TK-ECRE-luc and pCMX-YFP; incubated 18 hrs; luminescence
T1 construct: expressed in transfected cells; host or cells: CV-1 cells
T1 sequence (Q96RI1 1-486): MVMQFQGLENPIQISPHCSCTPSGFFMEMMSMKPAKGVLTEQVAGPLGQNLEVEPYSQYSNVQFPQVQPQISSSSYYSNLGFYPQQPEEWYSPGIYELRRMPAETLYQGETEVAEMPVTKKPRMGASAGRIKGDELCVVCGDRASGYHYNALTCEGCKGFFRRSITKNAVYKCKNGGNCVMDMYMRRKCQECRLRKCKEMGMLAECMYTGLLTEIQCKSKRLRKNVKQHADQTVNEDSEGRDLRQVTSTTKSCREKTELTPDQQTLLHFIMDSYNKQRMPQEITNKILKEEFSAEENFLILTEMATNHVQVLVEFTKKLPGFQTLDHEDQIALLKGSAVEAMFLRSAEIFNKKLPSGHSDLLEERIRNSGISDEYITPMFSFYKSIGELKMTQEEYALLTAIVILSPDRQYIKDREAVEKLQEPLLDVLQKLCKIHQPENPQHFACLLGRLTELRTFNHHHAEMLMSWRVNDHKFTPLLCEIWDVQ
T1 sequence (P19793 1-462 partner): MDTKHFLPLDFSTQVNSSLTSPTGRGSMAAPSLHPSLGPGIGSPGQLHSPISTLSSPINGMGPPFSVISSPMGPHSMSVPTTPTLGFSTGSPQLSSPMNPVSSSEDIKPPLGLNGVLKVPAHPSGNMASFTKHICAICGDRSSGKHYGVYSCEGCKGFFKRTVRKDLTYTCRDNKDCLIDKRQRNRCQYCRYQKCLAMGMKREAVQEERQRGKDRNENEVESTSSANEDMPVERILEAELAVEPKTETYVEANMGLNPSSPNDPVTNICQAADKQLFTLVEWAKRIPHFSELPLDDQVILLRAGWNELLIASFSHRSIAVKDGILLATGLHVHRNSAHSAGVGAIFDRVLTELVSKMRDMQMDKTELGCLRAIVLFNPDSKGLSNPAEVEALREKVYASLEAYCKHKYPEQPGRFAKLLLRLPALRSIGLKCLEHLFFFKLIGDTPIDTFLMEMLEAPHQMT
Method: Example 10: In Vitro FXR Assay (TK)
CV-1 were seeded at a density of 2,000,000 cells in a T175 flask with DMEM+10% charcoal double-stripped FBS and incubated at 37° C. in 5% CO2 for 18 h (O/N).
After 18 h of incubation, the medium in the T175 flask was changed with fresh DMEM+10% charcoal super-stripped serum. In a polypropylene tube, 2500 μL OptiMEM (Life Technologies, Cat #31985-062) was combined with expression plasmids for hFXR, hRXR, TK-ECRE-luc and pCMX-YFP. The tube was then briefly vortexed and incubated at room temperature for 5 minutes. Transfection reagent (X-tremeGENE HP from Roche, Cat #06 366 236 001) was added to the OptiMEM/plasmid mixture vortexed and incubated at room temperature for 20 minutes. Following incubation, the transfection reagent/DNA mixture complex was added to cells in the T175 flask and the cells were incubated at 37° C. in 5% CO2 for 18 h (O/N).
Compound 1 was serially diluted in DMSO and added to transfected CV-1 cells. The cells were then incubated for 18 hrs. The next day cells were lysed and examined for luminescence. Compound 1 TK hFXR: EC50≤0.01 μM.

Row | SMILES | water content at 95% RH (DVS) [1] [%] | hygroscopicity (DVS) [1] | changes in the XRPD pattern of post-DVS samples [1] | pEC50 (hFXR)
1 | COc1ccc(C23CCC(CN(c4cc(-c5cnn(C(C)(C)C)c5)ccn4)C(=O)[C@H]4CC[C@H](OC(=O)N5CC(O)C5)CC4)(CC2)CC3)cc1C [Form 1 of Compound 1, 4-((4-(1-(tert-butyl)-1H-pyrazol-4-yl)pyridin-2-yl)((4-(4-methoxy-3-methylphenyl)bicyclo[2.2.2]octan-1-yl)methyl)carbamoyl)cyclohexyl 3-hydroxyazetidine-trans-1-carboxylate] | 1.2 | only slightly hygroscopic | no significant changes | –
2 | COc1ccc(C23CCC(CN(c4cc(-c5cnn(C(C)(C)C)c5)ccn4)C(=O)[C@H]4CC[C@H](OC(=O)N5CC(O)C5)CC4)(CC2)CC3)cc1C [Form 2 of Compound 1, 4-((4-(1-(tert-butyl)-1H-pyrazol-4-yl)pyridin-2-yl)((4-(4-methoxy-3-methylphenyl)bicyclo[2.2.2]octan-1-yl)methyl)carbamoyl)cyclohexyl 3-hydroxyazetidine-trans-1-carboxylate] | 1.0 | only slightly hygroscopic | no significant changes | –
3 | COc1ccc(C23CCC(CN(c4cc(-c5cnn(C(C)(C)C)c5)ccn4)C(=O)[C@H]4CC[C@H](OC(=O)N5CC(O)C5)CC4)(CC2)CC3)cc1C [Compound 1, 4-((4-(1-(tert-butyl)-1H-pyrazol-4-yl)pyridin-2-yl)((4-(4-methoxy-3-methylphenyl)bicyclo[2.2.2]octan-1-yl)methyl)carbamoyl)cyclohexyl 3-hydroxyazetidine-trans-1-carboxylate] | – | – | – | ≥ 8.00

Next, values leading:

Row | water content at 95% RH (DVS) [1] [%] | hygroscopicity (DVS) [1] | changes in the XRPD pattern of post-DVS samples [1] | pEC50 (hFXR) | SMILES
4 | 1.2 | only slightly hygroscopic | no significant changes | – | COc1ccc(C23CCC(CN(c4cc(-c5cnn(C(C)(C)C)c5)ccn4)C(=O)[C@H]4CC[C@H](OC(=O)N5CC(O)C5)CC4)(CC2)CC3)cc1C [Form 3 of Compound 1, 4-((4-(1-(tert-butyl)-1H-pyrazol-4-yl)pyridin-2-yl)((4-(4-methoxy-3-methylphenyl)bicyclo[2.2.2]octan-1-yl)methyl)carbamoyl)cyclohexyl 3-hydroxyazetidine-trans-1-carboxylate]
5 | 1.9 | only slightly hygroscopic | no significant changes | – | COc1ccc(C23CCC(CN(c4cc(-c5cnn(C(C)(C)C)c5)ccn4)C(=O)[C@H]4CC[C@H](OC(=O)N5CC(O)C5)CC4)(CC2)CC3)cc1C [Form 4 of Compound 1, 4-((4-(1-(tert-butyl)-1H-pyrazol-4-yl)pyridin-2-yl)((4-(4-methoxy-3-methylphenyl)bicyclo[2.2.2]octan-1-yl)methyl)carbamoyl)cyclohexyl 3-hydroxyazetidine-trans-1-carboxylate]
